pIC50: −log10 of the molar value. Values joined by “and” are separate entries in the source; they are usually repeats but may differ in a detail not shown here. Equal values may be shown once. Read-outs that look alike come from different tables or passages of the source.
Experiments:
MDA-MB-231 cells = assay: Time-lapse videomicroscopy of mitosis; assay type: cell-based, human
Protocol: Cells in sealed T-25 tissue culture flasks were placed into a temperature-controlled incubation chamber built to enclose an inverted phase-contrast microscope. The chamber was shielded from ambient room light. Every 5 min, the microscope light was switched on for 12s, during which time an image was captured by an imaging system obtained from Compix, Inc. (Mars, Pa., USA). Image sequences were analyzed with software from the same company.
^a Mitoses were monitored by timelapse videomicroscopy during
continuous exposure of cells to DIME;
^b Fusion of daughter cells usually occurred within minutes of
cytokinesis and involved 2-5 daughter cells.

MDA-MB-231 xenografts = assay: MDA-MB-231 xenograft growth in nude mice; assay type: in vivo, human tumor in nude mice; conditions: 250 mg/kg gavage, 5 days/week; control 979.0 ± 154; p = 0.01; in mm³ (unit assumed)
Protocol: MDA-MB-231 (human mammary cancer) cells were obtained from American Type Culture Collection (Rockville, Md.) and maintained in the recommended growth media. Twenty nude mice were each inoculated subcutaneously with MDA-MB-231 cells (10^6 cells/100 μL). To one group of ten mice, DIME was administered by gavage (250 mg/kg, 10 mL/kg in corn oil) once per day, 5 days per week, for a total of 32 days. The other (control) group of ten mice was given administered vehicle only according to the same dosing schedule. Tumors were measured twice weekly using a Vernier caliper, and the mean tumor volume was determined at each time point. Comparisons between groups were made using an unpaired, two-tailed t-test and the results were analyzed using analysis of variance.
Tumorigenicity of E-ras 20 Cells in athymic nude mice was assayed as described previously. Bauer et al., 1996, "Modification of growth related enzymatic pathways and apparent loss of tumorigenicity of a ras-transformed bovine endothelial cell line by treatment with 5-iodo-6-amino-1,2-benzopyrone (INH2 BP)" Intl. J. Oncol. 8:239-252. The in vivo antitumorigenic action of DIME was assayed on athymic mice inoculated with 10^6 MDA-MB-231 cells, as in the tumorgenicity assay. […]

HeLa (cervical cancer) = assay: Cytocidal action/growth inhibition, HeLa; assay type: cell-based; conditions: Homo sapiens, 72 h
Protocol: (§1) Seven human cancer cell lines were obtained from the American Tissue Culture Collection (Rockville, Md.) and maintained in the recommended growth media. Cells were seeded into wells (2 cm^2) at a density of 2×10^4 cells/cm^2. Various concentrations of Compounds 1-13 were added to the media at the time of seeding.
(§2) The cultures were incubated for 72 hours at 37° C. (5% CO2 atmosphere). Following incubation, cells were detached with trypsin and counted in a hemocytometer.
(§3) I100 designates the concentration at which no viable cells remained; I50 the concentration at which 50% viable cells remained, as compared to a control.
(§4) E-ras 20 cells were cultured as reported, Bauer et al., 1996, "Modification of growth related enzymatic pathways and apparent loss of tumorigenicity of a ras-transformed bovine endothelial cell line by treatment with 5-iodo-6-amino-1,2-benzopyrone (INH2 BP)" Intl. J. Oncol. 8:239-252; HT-144 (melanoma), DU-145 (prostatic cancer), HeLa (cervical cancer), HL 60 (promyelocytic leukemia), MDA-MB-231 (mammary cancer), SK-Br-3 (mammary cancer), T47D (ductal mammary cancer), A559 (lung cancer) were obtained from American Type Culture Collection (Rockville, Md.) and cultured in prescribed media. The effect of DIME was tested in cultures with a starting cell density of 2×10^4 cells per cm^2 and comparison of the effect of DIME on cell growth (intact cells identified by Trypan blue exclusion) was assayed by direct cell counting after trypsinization in a hemocytometer 72 hours after drug addition.
(§5) For DIME-exposure experiments cells were seeded into 2 cm^2 wells at a density of 2×10^4 cells/cm^2. DIME at various concentrations was added to the medium at the time of seeding. The cell cultures were then incubated for 3 days (37° C. in 5% at CO2 atmosphere).

SK-Br-3 (mammary cancer) = assay: Cytocidal action/growth inhibition, SK-Br-3; assay type: cell-based; conditions: Homo sapiens
Protocol: as §1, §2, §3, §4, §5

[1] = Serum half-life and bioavailability of 14C-DIME; assay type: in vivo, mouse
Protocol: Aliquots (50 μL) of blood were assayed in a liquid scintillation counter and data expressed as microgram-equivalents per mL. The blood level data were analyzed by the RSTRIP method (Micromath, Salt Lake City, Utah).

[2] = tested on: protein phosphatase 2A (E-ras 20 cell nuclear extract); assay: Phosphatase activity, E-ras 20 cell nuclear extract; assay type: cell-based, bovine
Protocol: Compounds 1-13 were tested for protein phosphatase 2A activation in malignant tumor cell cultures in vitro according to the protocol described in Bauer et al., 1996, "Modification of Growth Related Enzymatic Pathways and Apparent Loss of Tumorigenicity of a Ras-Transformed Bovine Endothelial Cell Line by Treatment with 5-Iodo-6-Amino-1,2-Benzopyrone (INH2 BP)," International J. of Oncology 8:239-252. All other compounds were ineffective.

MDA-MD-231 cells = assay: Inhibition of tumor cell growth; assay type: cell-based, human; conditions: 3 days, control 0.95
Protocol: MDA-MD-231 human cancer cells were obtained from the American Tissue Culture Collection (Rockville, Md.) and maintained in the recommended growth media. Cells were grown in the presence of various concentrations of Compounds 1 and 14 for 3 days at 37° C.

[3] = tested on: E-ras 20 cells (E-ras transformed bovine endothelial cells); assay: Tumorigenicity of pretreated E-ras 20 cells in athymic nude mice; set-up: species or system bovine cells in nude mice; conditions: 10 μM pretreatment, no in vivo drug treatment

COC(=O)c1cc(I)c(Oc2ccc(OC)cc2)c(I)c1 [Compound 1, Methyl 3,5-diiodo-4-(4'-methoxyphenoxy)benzoate]
increase of average time spent in mitosis (MDA-MB-231 cells; 1 μM): more than 20 fold
mitoses yielding daughter cells which fused (share) (MDA-MB-231 cells; 1 μM): Twenty percent
rate of entry into mitosis / traversal of interphase (MDA-MB-231 cells; 1 μM): did not affect the rate at which the cells traversed interphase
No. of mitosis followed by fusion of daughter cells (MDA-MB-231 cells; 1.0 μM, 35 mitoses monitored, control 0 of 32): 7
delay in mitosis (MDA-MB-231 cells; 1 μM, control approximately 0.5 hr): 13 h
daughter cells in irregular division (FIG. 12) (MDA-MB-231 cells; 1 μM, control exactly 2): 6 daughter cells
Tumor Volume Day 28 ± SEM (MDA-MB-231 xenografts): 430 ± 85.6
pIC50 (HeLa (cervical cancer); Table 4, read-out: I50): 6.22
IC100 (HeLa (cervical cancer); Table 4, read-out: I100 (no viable cells remained)): 3.5 µM
pIC50 (HeLa (cervical cancer); day 3, Table 11, read-out: I50 (day 3)): 6.22
pIC50 (SK-Br-3 (mammary cancer); SK-BR-3, 72 h, day 3, Table 11, read-out: I50 (day 3)): 6.22
pIC50 (SK-Br-3 (mammary cancer); SK-BR-3, 72 h, Table 4, read-out: I50): 6.22
IC100 (SK-Br-3 (mammary cancer); SK-BR-3, 72 h, Table 4, read-out: I100 (no viable cells remained)): 5 µM
i.v. serum half-life (t1/2) ([1]; i.v., 24.5 mg/kg): 2 to 2.5 h
oral bioavailability ([1]; oral 126 mg/kg vs i.v. 24.5 mg/kg, listed as DIME, 126 mg/kg): 83% and 87%
half-life (t1/2) ([1]; serum): 2 to 2.5 h
Phosphatase Activity ([2]; 50 μM DIME, untreated 29 ± 5): 44 ± 7 fmol Pi/mg protein × min.
activation of protein phosphatase 2A, fold ([2]; 50 μM, E-ras transformed cells): at least two-fold
Cells (growth) (MDA-MD-231 cells; 0.5 μM): 0.20 ×10^6
Cells (growth) (MDA-MD-231 cells; 1.0 μM): 0.10 ×10^6
Cells (growth) (MDA-MD-231 cells; 2.0 μM): 0.09 ×10^6
tumor appearance after 3 months [3]: Tumors did not appear even after 3 months

— patent US6017958A, “Method of treating malignant tumors with thyroxine analogues having no significant hormonal activity” (Octamer, Inc., priority 1997, dated 2000)
